# Assay results taken from paper PMC11943016, “TBG096 Ameliorates Memory Deficiency in AD Mouse Model via Promoting Neurogenesis and Regulation of Hsc70/HK2/PKM2/LAMP2A Signaling Pathway” (International Journal of Molecular Sciences, 2025).
# How the values were obtained:
# gut microbiota = test: Gut microbiota analysis in HFD-induced AD mice; format: in vivo; settings: Met 140 mg/kg
# Text: In experiments with the HFD-induced AD mouse model, a total of 60 Institute of Cancer Research (ICR) male mice aged 4 weeks from Zhejiang Academy of Medical Sciences (Hangzhou, China) were used for animal experiments (permit number: ZJU20230121). The animals were provided free access to a chow diet and water. […] The HFD and normal diet were alternated every two days to maintain freshness. Weekly measurements were taken for water intake, food intake, and body weight. In the eighteenth week, the mice underwent Y-maze and NOR tests. The Morris water maze test was conducted during the nineteenth week. After confirming the successful establishment of the AD model characterized by cognitive impairment, oral administration of treatments commenced. […] Each group had 10 mice.
# BV-2 microglial cells = test: Anti-inflammatory activity in LPS-treated BV-2 cells (Iba1 fluorescence); format: cell-based; settings: 24 h
# Experimental: BV-2 cells were obtained from Nanjing CoBioer Biotechnology Ltd., Co., Nanjing, China, and cultured in RPMI 1640 medium (Roswell Park Memorial Institute 1640 medium, Gibco, Grand Island, NY, USA) supplemented with 10% FBS and 1% penicillin/streptomycin. The anti-inflammatory activity of samples in BV-2 cells was determined as follows. Approximately 5 × 10^4 cells were seeded in each well of a 24-well microplate and were cultured under a humidified atmosphere with 5% CO2 at 37 °C for 24 h. Then, the medium was replaced by 500 µL RPMI 1640 medium containing 0.5% DMSO or samples at different concentrations for 2 h, and 500 µL medium containing LPS (1 µg/mL) was added and incubated for 24 h. Next, the medium of each well was sucked out, and each well was washed with phosphate-buffered saline (PBS) three times and fixed with 4% paraformaldehyde (500 µL/well) for 20 min at room temperature. The fixative was discarded, washed with PBS, and blocked for 60 min. […] After that, the cell nucleus was stained with diluted DAPI (SouthernBiotech, Birmingham, AL, USA) for 10 min, and the fluorescence image of BV-2 cells was observed under the fluorescence inverted microscope. Three regions were randomly selected to be observed and recorded with pictures. Image J software version 1.8.0 (National Institutes of Health, Bethesda, MD, USA) was finally used to analyze the fluorescence density of BV-2 cells.
# [1] = Brain concentration after oral administration in rats (BBB passage); format: in vivo
# Experimental: In the pharmacokinetic analysis, a total of […] female SD rats aged 8 weeks from Zhejiang Academy of Medical Sciences (Hangzhou, China) (permit number: ZJU20240191) were used. A total of 15 rats were randomly divided into the following groups: (i) control group, (ii) TBG096 (14 mg/kg) oral administration group, and (iii) TBG096 (14 mg/kg) intravenous administration group. TBG096 was administered orally (dissolved in soybean oil) or intravenously (dissolved in Milli-Q water containing 2% Tween 80 and 5% ethanol) at 14 mg/kg after 12 h of fasting. Then, the blood from the posterior ocular venous plexus of rats was taken at 5, 15, 30, 60, 90, 120, 180, and 240 min after administration. […]
# The collected blood was placed in a centrifuge tube (containing 20 µL heparin sodium solution) and centrifuged at 3000 rpm for 10 min to obtain a supernatant (plasma). […] The residue was dissolved in 100 µL of mobile phase, vortexed for 0.5 min, and centrifuged at 12,000 rpm for 3 min, and the supernatant was then prepared for HPLC analysis (Supersil Phenyl 5 µm (4.6 × 200 mm), elution with MeCN/H2O containing 0.1% formic acid (plasma samples: 57% MeCN/H2O, brain samples: 56% MeCN/H2O) for 30 min, flow rate: 1 mL/min, sample size: 20 µL, detected at 284 nm) and HR ESI-TOF-MS analysis.
# ICR mice = test: Acute toxicity experiment in mice; format: in vivo
# Experimental: In the acute toxicity experiment of mice, a total of 40 ICR male mice aged 8 weeks from Zhejiang Academy of Medical Sciences (Hangzhou, China) were used. A standard experimental scheme was adopted according to the requirements of Zhejiang University Animal Experiment Ethics Committee (animal use license number: SYXK(Zhe)2019-0002, permit number: ZJU20230219). The mice were randomly divided into the following groups: (i) control group, (ii) TBG096 100 mg/kg group, (iii) TBG096 300 mg/kg group, and (iv) TBG096 600 mg/kg group. Each group had 10 mice. Soybean oil was used as a vehicle to dissolve TBG096. The body weight, food intake, and water consumption of mice in each group were recorded every day for two weeks. Blood was collected for biochemical index analysis.
compound,measurement,setting,value
O=C(SCCCCCCSCCCC(F)(F)F)c1cccc(O)c1O [TBG096],abundance of Firmicutes (decreased by HFD) and Bacteroidota (increased by HFD),gut microbiota; TBG096 20 mg/kg,reversed
same,abundance of Ligilactobacillus,gut microbiota; TBG096 5 and 20 mg/kg,improved
same,LPS-induced overactivation of BV-2 cells,BV-2 microglial cells,dose-dependently inhibited
same,optimal concentration for inhibition of LPS-induced overactivation of BV-2 cells,BV-2 microglial cells,0.3 µM
same,ability to cross the BBB,"[1]; brain samples 15 min after oral 14 mg/kg, HPLC and HR ESI-TOF-MS",has the ability to cross the BBB
same,concentration at 15 min,"[1]; female, Sprague-Dawley, rat, brain, 15 min after single oral dose 14 mg/kg, rats",81.7 ± 6.81 ng/g
same,acute toxicity in mice,"ICR mice; mouse, in vivo",does not exhibit acute toxicity
same,"body weight, food intake, water consumption","ICR mice; oral 100, 300, and 600 mg/kg, two weeks, mice",no significant differences
same,"serum biochemical indices (AST, ALT, AST/ALT, ALB, DBIL)","ICR mice; oral 100, 300, and 600 mg/kg, vs control group, mice",no significant changes
